Source: patent US12134623B1, “2,16-dioxapentacyclo[7.7.5.01,21.03,8.010,15]henicosa3(8),10,12,14-tetraene-7,20-dione as an antimicrobial compound” (KING FAISAL UNIVERSITY, priority 2023, dated 2024)

Legend:
Type in all cases: cell-based
Details in all cases: after 10, 20, 40 and 60 minutes at all dilutions 1:100, 1:200, 1:400, 1:800
Candida albicans = experiment: Antimicrobial (antifungal) activity by agar dilution, Candida albicans
Description: (§1) The antibacterial properties of the synthesized compound (of 2,16-dioxapentacyclo[7.7.5.0^1,21.0^3,8.0^10,15]henicosa3(8), 10,12,14-tetraene-7,20-dione) were studied by the method of agar dilution. Test solutions of each compound was prepared in concentration of 1% using dimethylformamide as a solvent. Then they were diluted in physiological solution to obtain the final experimental dilutions of 1:100, 1:200, 1:400, and 1:800. The effect of these substances were compared with furacillin in a controllable study. The testing microbes used were gram positive bacteria Staphylococcus aureus, gram negative bacteria Pseudomonas aeruginosa, Escherichia coli, and Candida albicans fungus. The experiments used for this survey were meat-pentonlu agar (EPA) for cultivation of bacteria and Saburo environment for fungi. Each experiment used 1 mL of test solution on each plate for 500 minutes. Two drops of emulsified with microbes feel were added. All experimental samples were taken from the agar after 10, 20, 40, 60 minutes in the environment on the basis of Patrk planted. Bacteria were cultivated at a temperature of 37° C. for 1 day and the mushroom was kept in a thermostat for […] at a temperature of 28° C. Then results were checked. Those of control and the antimicrobial activity for the synthesized compounds are listed in Table 1 below, with furacillin serving as a reference.

Staphylococcus aureus = experiment: Antimicrobial activity by agar dilution, Staphylococcus aureus
Description: as §1

Pseudomonas aeruginosa = experiment: Antimicrobial activity by agar dilution, Pseudomonas aeruginosa
Description: as §1

Escherichia coli = experiment: Antimicrobial activity by agar dilution, Escherichia coli
Description: as §1

Measured: inhibition activity compared with the inhibition activity of Furacilin

O=C1CCCC2=C1C1c3ccccc3OC3(CCCC(=O)C13)O2 (stereo not shown) [2,16-dioxapentacyclo[7.7.5.0^1,21.0^3,8.0^10,15]henicosa3(8), 10,12,14-tetraene-7,20-dione]
higher inhibition activity: all assays above
